The text below walks through data of ChEMBL document CHEMBL5465560, “Selectivity Literature for EUbOPEN Chemogenomic Library” (2024).

In assay [1] the target is 3',5'-cyclic-AMP phosphodiesterase 4B (Homo sapiens) (UniProt Q07343). The experiment in a line: Selectivity interaction (Panel of kinases, GPCRs, ion channels and transporters (enzymatic assay)) EUB0000266bCl PDE4B.
The target in assay [2] is Mitogen-activated protein kinase kinase kinase 8 (Homo sapiens, UniProt P41279). The experiment in a line: Selectivity interaction (ProQinase) EUB0000171b MAP3K8.
Sequence of Mitogen-activated protein kinase kinase kinase 8 (P41279 whole entry): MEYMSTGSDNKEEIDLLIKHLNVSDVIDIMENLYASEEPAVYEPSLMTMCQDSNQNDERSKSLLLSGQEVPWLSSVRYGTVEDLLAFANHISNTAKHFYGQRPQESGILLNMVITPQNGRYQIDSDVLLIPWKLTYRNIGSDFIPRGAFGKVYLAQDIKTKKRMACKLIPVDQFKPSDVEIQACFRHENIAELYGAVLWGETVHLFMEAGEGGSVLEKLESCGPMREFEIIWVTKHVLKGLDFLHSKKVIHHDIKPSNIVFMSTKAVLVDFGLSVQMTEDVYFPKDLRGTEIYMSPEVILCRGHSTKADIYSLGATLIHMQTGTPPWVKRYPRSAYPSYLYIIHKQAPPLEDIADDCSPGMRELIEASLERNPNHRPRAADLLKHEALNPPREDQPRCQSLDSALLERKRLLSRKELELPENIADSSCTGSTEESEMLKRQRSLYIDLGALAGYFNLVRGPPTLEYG
The target of assay [3] is Tyrosine-protein kinase Fes/Fps (Homo sapiens) (UniProt P07332). Particulars: at 10 µM.
Sequence of Tyrosine-protein kinase Fes/Fps (Homo sapiens) (P07332 whole entry): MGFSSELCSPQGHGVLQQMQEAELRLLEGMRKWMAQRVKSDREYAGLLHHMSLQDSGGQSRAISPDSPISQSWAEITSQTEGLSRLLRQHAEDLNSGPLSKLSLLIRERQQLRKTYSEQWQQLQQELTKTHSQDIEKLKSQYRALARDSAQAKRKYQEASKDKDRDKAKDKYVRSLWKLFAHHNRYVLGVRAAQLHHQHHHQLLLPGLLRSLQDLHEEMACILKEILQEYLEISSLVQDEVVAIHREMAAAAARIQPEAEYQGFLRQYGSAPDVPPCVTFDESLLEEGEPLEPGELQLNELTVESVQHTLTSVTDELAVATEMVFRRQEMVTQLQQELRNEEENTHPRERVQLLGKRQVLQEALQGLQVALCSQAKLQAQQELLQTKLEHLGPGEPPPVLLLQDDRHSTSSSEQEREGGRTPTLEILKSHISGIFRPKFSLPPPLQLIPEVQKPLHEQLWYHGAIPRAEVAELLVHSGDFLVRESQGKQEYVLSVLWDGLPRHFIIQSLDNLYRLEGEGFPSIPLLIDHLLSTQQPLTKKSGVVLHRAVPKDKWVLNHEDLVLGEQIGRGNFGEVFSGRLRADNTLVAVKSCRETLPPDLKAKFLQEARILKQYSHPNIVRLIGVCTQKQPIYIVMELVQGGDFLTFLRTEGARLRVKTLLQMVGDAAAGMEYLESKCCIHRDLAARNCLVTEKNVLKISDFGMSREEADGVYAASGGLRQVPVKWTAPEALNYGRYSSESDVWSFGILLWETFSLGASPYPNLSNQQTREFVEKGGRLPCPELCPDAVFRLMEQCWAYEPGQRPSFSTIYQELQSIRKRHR
In assay [4] the target is Serine/threonine-protein kinase PRP4 homolog (Homo sapiens) (UniProt Q13523). Description: Selectivity interaction (Ambit KINOMEscan and KiNATiv profiling in Jurkat cells) EUB0000090b PRPF4. The class given is cell-based. Conditions: at 1 µM.
The target of assay [5] is T1, Mitogen-activated protein kinase kinase kinase 5 (Homo sapiens) (UniProt Q99683).
T1 sequence (whole entry): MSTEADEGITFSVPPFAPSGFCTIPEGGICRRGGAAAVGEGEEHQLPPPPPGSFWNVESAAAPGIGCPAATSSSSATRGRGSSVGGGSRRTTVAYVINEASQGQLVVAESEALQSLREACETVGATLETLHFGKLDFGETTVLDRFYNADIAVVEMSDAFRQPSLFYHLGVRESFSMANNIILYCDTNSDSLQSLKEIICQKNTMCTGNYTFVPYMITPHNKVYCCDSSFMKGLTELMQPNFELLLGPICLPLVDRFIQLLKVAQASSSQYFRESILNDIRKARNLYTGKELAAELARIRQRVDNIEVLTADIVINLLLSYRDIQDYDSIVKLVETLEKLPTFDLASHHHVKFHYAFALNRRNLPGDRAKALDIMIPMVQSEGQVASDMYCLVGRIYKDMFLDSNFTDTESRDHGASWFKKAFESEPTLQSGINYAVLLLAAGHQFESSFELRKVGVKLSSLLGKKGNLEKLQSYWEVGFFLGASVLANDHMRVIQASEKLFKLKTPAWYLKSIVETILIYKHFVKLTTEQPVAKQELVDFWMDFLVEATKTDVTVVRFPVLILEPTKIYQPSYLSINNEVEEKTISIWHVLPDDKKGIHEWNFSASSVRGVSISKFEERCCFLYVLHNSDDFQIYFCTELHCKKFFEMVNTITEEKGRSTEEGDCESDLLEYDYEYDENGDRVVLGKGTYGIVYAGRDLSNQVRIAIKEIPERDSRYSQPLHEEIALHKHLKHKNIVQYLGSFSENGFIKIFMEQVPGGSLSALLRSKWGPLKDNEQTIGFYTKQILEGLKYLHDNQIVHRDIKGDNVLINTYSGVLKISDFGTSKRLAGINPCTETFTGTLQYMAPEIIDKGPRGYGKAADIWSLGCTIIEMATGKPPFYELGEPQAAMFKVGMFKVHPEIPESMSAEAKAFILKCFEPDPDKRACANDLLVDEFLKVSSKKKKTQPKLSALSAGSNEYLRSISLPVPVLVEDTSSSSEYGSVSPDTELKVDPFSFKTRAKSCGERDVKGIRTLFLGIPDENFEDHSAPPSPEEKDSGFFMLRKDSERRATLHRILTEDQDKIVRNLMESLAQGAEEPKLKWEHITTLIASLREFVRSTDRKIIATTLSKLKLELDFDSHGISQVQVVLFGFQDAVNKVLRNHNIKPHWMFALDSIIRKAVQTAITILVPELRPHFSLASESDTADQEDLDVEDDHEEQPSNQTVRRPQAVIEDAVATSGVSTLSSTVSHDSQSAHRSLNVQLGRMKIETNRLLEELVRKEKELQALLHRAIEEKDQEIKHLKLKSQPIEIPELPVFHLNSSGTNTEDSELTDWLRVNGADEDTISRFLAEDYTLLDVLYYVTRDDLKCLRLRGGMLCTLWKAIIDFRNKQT
Description: Selectivity interaction (KinomeScan (DiscoverX)) EUB0000655a MAP3K5. Particulars: at 10 µM.

Assay [6] has as its target Ribosomal protein S6 kinase alpha-4 (Homo sapiens) (UniProt O75676). The experiment in a line: Selectivity interaction (KinomeScan (DiscoverX)) EUB0000045b RPS6KA4. Conditions: at 1 µM.
In assay [7] the target is SRSF protein kinase 2 (Homo sapiens) (UniProt P78362). Description: Selectivity interaction (KinomeScan (DiscoverX)) EUB0000607a SRPK2. Conditions: at 10 µM.
Assay [8] deals with Ribosomal protein S6 kinase alpha-2 (Homo sapiens) (UniProt Q15349). The experiment in a line: Selectivity interaction (ActivX KiNativ screen (kinase selectivity in THP-1 cell lysates)) EUB0000639a RPS6KA2. The class given is subcellular. Particulars: lysate.
Sequence of Ribosomal protein S6 kinase alpha-2 (Homo sapiens) (Q15349 whole entry): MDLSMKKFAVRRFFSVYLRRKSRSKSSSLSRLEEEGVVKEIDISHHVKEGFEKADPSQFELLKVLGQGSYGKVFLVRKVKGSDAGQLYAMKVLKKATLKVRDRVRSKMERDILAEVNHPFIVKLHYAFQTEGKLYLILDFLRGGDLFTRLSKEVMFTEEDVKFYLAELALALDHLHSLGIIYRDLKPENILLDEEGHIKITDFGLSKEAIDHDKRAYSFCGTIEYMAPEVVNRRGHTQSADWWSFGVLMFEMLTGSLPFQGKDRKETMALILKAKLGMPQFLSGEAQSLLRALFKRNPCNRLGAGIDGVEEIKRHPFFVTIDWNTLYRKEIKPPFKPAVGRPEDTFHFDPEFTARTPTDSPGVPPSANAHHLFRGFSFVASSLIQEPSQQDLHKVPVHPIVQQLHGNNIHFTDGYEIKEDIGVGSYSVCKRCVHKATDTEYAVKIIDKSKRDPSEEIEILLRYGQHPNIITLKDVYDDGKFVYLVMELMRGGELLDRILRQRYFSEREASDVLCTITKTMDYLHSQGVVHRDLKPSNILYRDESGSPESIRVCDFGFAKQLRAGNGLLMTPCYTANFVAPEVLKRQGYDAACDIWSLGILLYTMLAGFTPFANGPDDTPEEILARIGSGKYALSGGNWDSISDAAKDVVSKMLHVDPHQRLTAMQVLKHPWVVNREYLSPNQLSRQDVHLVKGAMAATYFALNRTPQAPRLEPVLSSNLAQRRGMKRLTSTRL
The target of assay [9] is STE20-like serine/threonine-protein kinase (Homo sapiens, UniProt Q9H2G2). The experiment in a line: Selectivity interaction (ActivX KiNativ screen (kinase selectivity in THP-1 cell lysates)) EUB0000639a SLK. Particulars: lysate, at 0.01 µM. It is filed as subcellular.
Assay [10] deals with Tyrosine-protein kinase Fer (Homo sapiens) (UniProt P16591). Description: Selectivity interaction (ActivX KiNativ screen (kinase selectivity in THP-1 cell lysates)) EUB0000639a FER. The class given is subcellular. Particulars: lysate, at 0.01 µM.
Sequence of Tyrosine-protein kinase Fer (Homo sapiens) (P16591 whole entry, looked up): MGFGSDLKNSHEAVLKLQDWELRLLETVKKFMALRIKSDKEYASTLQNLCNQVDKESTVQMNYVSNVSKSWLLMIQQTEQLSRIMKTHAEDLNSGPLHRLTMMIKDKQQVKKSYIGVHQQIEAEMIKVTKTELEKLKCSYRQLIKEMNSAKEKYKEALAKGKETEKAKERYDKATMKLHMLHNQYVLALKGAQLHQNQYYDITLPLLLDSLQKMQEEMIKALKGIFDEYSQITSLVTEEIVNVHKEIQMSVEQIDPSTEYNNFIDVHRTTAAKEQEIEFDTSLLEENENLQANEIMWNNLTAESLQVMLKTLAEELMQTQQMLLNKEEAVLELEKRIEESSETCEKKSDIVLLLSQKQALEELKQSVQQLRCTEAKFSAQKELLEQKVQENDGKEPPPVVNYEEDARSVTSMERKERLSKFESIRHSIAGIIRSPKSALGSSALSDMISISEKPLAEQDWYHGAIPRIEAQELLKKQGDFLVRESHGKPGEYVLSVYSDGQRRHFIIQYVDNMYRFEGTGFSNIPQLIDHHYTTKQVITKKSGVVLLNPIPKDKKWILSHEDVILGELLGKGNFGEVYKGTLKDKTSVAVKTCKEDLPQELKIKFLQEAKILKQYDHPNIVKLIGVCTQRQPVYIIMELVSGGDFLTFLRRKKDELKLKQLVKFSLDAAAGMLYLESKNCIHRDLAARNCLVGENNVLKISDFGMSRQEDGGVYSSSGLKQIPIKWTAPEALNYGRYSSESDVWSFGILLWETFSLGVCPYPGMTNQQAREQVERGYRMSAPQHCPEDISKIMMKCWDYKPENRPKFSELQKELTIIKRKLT
Assay [11] deals with T2, Dual specificity tyrosine-phosphorylation-regulated kinase 1B (Homo sapiens, UniProt Q9Y463). Description: Selectivity interaction (Kinase panel (Invitrogen)) EUB0000639a DYRK1B. Conditions: at 200 nM.
T2 sequence (Q9Y463 whole entry, looked up): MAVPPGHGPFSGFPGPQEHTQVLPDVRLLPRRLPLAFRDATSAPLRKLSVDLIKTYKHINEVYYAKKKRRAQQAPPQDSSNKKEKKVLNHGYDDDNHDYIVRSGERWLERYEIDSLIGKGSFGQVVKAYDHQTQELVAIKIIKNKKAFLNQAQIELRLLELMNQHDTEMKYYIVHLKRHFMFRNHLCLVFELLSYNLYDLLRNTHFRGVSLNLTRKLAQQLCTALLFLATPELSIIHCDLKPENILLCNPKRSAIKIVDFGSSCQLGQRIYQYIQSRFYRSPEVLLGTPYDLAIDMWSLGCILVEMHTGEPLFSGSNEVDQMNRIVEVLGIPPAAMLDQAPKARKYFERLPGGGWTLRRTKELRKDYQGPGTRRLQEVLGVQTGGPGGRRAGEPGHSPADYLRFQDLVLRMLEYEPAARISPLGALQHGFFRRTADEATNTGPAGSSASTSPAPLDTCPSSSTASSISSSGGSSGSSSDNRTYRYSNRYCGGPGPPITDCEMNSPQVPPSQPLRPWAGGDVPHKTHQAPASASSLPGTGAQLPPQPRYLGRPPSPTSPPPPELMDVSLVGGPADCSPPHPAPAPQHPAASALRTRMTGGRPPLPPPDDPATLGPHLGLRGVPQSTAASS
Assay [12] deals with Cyclin-dependent kinase 15 (Homo sapiens) (UniProt Q96Q40). Description: Selectivity interaction (KinomeScan (DiscoverX)) EUB0000595a CDK15. Conditions: at 10 µM.
In assay [13] the target is T3, Aurora kinase C (Homo sapiens) (UniProt Q9UQB9).
T3 sequence (whole entry): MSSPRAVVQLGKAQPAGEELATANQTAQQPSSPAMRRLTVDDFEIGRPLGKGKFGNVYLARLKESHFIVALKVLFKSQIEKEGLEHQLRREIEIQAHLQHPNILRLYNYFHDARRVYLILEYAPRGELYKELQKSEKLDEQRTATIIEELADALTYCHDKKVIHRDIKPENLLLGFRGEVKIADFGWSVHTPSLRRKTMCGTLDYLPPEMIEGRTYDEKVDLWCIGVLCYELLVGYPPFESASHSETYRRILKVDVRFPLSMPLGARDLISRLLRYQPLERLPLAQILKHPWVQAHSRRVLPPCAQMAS
Conditions: at 10 µM.

Assay [14] deals with T2, Dual specificity tyrosine-phosphorylation-regulated kinase 1B. Description: Selectivity interaction (KinomeScan (DiscoverX)) EUB0001619a DYRK1B. Particulars: at 1 µM.
Assay [15] deals with RAC-alpha serine/threonine-protein kinase (Homo sapiens, UniProt P31749). Description: Selectivity interaction (Kinase panel (literature)) EUB0001199aCl AKT1. Particulars: at 1 µM.
Assay [16] deals with Tyrosine-protein kinase JAK1 (Homo sapiens, UniProt P23458). The experiment in a line: Selectivity interaction (Kinase panel (KiNativ target engagement assay in Jurkat cells)) EUB0001635a JAK1. Particulars: Selectivity number of off-targets 0.0, Selectivity number of targets 233.0, Source Knowledge https://www.sciencedirect.com/science/article/pii/S2451945619300674?via%3Dihub, at 1 µM. It is filed as cell-based.

Sequence of 3',5'-cyclic-AMP phosphodiesterase 4B (Homo sapiens) (Q07343 whole entry): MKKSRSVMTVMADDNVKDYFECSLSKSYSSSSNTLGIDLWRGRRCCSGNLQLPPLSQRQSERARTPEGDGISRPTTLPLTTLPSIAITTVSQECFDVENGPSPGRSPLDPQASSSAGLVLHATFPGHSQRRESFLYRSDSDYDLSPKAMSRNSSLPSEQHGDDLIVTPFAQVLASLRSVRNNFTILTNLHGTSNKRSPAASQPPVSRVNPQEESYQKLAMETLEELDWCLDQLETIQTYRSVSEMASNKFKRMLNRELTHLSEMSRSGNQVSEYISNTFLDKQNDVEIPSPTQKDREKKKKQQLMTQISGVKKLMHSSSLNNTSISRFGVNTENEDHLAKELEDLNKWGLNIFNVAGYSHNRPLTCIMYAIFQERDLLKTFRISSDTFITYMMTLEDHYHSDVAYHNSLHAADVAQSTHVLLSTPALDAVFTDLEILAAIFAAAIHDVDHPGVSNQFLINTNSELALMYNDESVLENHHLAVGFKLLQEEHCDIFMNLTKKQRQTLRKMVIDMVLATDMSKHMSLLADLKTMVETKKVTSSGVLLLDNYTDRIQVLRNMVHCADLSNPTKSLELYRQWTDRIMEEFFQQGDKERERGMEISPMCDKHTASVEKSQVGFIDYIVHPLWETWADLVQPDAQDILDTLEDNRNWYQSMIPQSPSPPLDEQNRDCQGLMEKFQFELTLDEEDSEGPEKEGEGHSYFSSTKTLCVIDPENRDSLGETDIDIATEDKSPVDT
Sequence of Ribosomal protein S6 kinase alpha-4 (Homo sapiens) (O75676 whole entry, looked up): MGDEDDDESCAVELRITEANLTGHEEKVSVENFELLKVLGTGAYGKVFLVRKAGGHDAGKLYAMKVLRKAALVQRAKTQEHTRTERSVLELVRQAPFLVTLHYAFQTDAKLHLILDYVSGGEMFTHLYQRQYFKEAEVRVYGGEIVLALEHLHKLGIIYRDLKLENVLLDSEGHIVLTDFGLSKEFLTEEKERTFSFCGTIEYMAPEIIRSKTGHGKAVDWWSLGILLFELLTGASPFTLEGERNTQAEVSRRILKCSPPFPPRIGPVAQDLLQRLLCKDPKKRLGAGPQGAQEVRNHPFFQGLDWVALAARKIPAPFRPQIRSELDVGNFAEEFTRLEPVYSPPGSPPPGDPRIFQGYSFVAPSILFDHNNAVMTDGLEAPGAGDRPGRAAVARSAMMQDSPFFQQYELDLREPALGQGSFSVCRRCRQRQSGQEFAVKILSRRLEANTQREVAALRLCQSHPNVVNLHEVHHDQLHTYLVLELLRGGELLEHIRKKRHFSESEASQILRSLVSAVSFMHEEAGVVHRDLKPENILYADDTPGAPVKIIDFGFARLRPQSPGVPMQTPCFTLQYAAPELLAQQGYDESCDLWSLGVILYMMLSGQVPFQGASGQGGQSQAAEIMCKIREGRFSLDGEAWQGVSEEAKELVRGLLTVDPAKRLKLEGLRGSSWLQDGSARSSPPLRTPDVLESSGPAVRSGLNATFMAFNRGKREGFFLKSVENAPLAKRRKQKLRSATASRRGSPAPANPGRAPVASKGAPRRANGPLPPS

With `CCn1c(-c2nc3cc(C(=O)N4CCCC(N)C4)ccc3n2C)cc2ccccc21` (stereo unspecified), in assay [1], the pXC50 came to 4.6 M.

With `C=CC(=O)Nc1cccc(C(=O)Nc2ccc(Nc3cc(-c4[nH]c(SC)nc4C)ccn3)cc2)c1`, the % of control stood at 95% in assay [2] (at 1 µM) and 103% in [2] (at 5 µM). As to `Cc1cc([C@@H](C)Nc2ccccc2C(=O)O)c2nc(N3CCOCC3)cc(=O)n2c1` [AZD-6482], the % of control in assay [3] was determined as 94%. With `CN(C)C/C=C/C(=O)Nc1ccc(C(=O)N2CCCC(Nc3ncc(Cl)c(-c4c[nH]c5ccccc45)n3)C2)cc1` (stereo unspecified), the % of control in assay [4] is 74%.

Regarding `CN(C)CCOc1ccc(-c2nc(-c3ccncc3)c(-c3ccc4c(c3)CC/C4=N\O)[nH]2)cc1`, the % of control in assay [5] was 94%. With `C=CC(=O)Nc1cc(-n2c(=O)ccc3cnc4ccc(-c5ccc(NS(C)(=O)=O)cc5)cc4c32)ccc1C`, the % of control in assay [6] was found to be 67%. `CNC(=O)Nc1ccc(-c2nc(N3CC4CCC(C3)O4)c3cnn(C4CCC5(CC4)OCCO5)c3n2)cc1` registered a % of control in assay [7] of 90%. With `CC[C@@H]1[C@H](F)C(=O)N[C@@H]1COc1nccc2cc(C(N)=O)c(OC)cc12` [ZIMLOVISERTIB], the % of inhibition in assay [8] (at 0.01 µM) was 16.9%; in assay [8] (at 0.04 µM), 12.4%; in [8] (at 0.2 µM), 10.3%; in [8] (at 1 µM), 8.6%; in [8] (at 5 µM), 11.7%; in assay [9], -0.7%. In addition, the % of inhibition in [10] is -9%; in assay [11], 16.5%. As to `COCC(=O)NC/C=C/c1ccc2ncnc(Nc3ccc(Oc4ccc(C)nc4)c(C)c3)c2c1` [CP-724714], the % of control in assay [12] came out at 71%; in assay [13], 67%. For `N#Cc1cccc(-c2c[nH]c3ncnc(N4CCOCC4)c23)c1`, the % of control in [14] was 70%. Regarding `CN1Cc2nccc(-c3cn(C)nc3-c3ccc(F)cc3)c2C1=O`, the % of inhibition in [15] is -3%. In turn, `C=CC(=O)Nc1ccc(C(=O)Nc2[nH]nc3c2CN(C(=O)N[C@H](CN(C)C)c2ccccc2)C3(C)C)cc1` gave a % of engagement in [16] of 11.1%.
